From patent US8507479B2, “Aminodihydrothiazine derivatives substituted with a cyclic group” (Shionogi & Co., Ltd., priority 2007, dated 2013) come the findings set out here.

For the first assay, the target named is Recombinant human BACE-1 (Homo sapiens (Human), UniProt P56817). The assay can be described thus: Assay of β-secretase-inhibiting activity.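 Also: enzyme cleavage of a biotinylated, Europium cryptate-labelled peptide substrate, incubated 3 h at 30 °C, then probed with Streptavidin-XL665 in KF-containing phosphate buffer.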 Format: biochemical. The following applies: Recombinant human BACE-1, Table 139; read-out: IC50.
Recombinant human BACE-1, sequence (P56817 46-501): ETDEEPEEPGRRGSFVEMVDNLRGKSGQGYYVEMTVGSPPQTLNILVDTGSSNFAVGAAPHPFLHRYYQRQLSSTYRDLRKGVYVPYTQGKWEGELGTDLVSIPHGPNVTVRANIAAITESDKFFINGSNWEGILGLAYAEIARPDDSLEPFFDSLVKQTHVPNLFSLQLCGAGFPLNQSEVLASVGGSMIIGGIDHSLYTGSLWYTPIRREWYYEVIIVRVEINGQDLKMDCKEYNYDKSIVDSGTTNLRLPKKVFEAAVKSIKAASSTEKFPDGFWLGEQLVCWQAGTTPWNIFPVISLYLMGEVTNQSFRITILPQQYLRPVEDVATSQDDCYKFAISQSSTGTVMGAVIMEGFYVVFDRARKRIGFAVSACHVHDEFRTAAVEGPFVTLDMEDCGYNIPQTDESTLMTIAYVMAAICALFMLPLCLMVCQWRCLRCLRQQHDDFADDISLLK
Regarding `C[C@@]1(c2cccc(N/C(=N/O)c3ncc(Cl)cc3Cl)c2)CCSC(N)=N1` [Compound 26], the IC50 worked out at 4.85 µM.

The same assay, now with this note: Recombinant human BACE-1, same assay, table; read-out: IC50.
As for `C[C@@]1(c2cc(NC(=O)c3cnc(NCC#N)cn3)ccc2F)CCSC(N)=N1` [Compound 701], the IC50 amounted to 0.2 µM.

The same assay, now with this note: substrate peptide 18 nM, BACE-1 7.4 nM, pH 5.0, 30° C., 3 hours; read-out: IC50 values.
Consider `Cc1cnc(C(=O)Nc2cccc([C@]3(C)CCSC(N)=N3)c2)cn1` [Compound 563], for which the IC50 was no more than 1 µM.
Still for that read-out and setting: in the case of `Cc1cnc(C(=O)Nc2cc([C@]3(C)CCSC(N)=N3)c3oc(C)cc3c2)cn1` [Compound 468] it was no more than 1 µM.
Turning to `C[C@@]1(c2cccc(NC(=O)c3ccc(Cl)cn3)n2)CCSC(N)=N1` [Compound 599], the concentration for half-maximal inhibition (IC50) is no more than 1 µM.
The same measure, in the same setting: in the case of `COc1cnc(C(=O)Nc2cccc([C@]3(C)CCSC(N)=N3)c2)c(N)n1` [Compound 29] it was no more than 1 µM.
Same read-out and setting: in the case of `Cc1nc(C(=O)Nc2ccnc([C@]3(C)CC(C)(C)SC(N)=N3)c2)co1` [Compound 654] it was no more than 1 µM.
For `Cc1cnc(C(=O)Nc2ccc(F)c([C@@]3(C)N=C(N)SCC34CC4)c2)cn1` [Compound 674], the IC50 is no more than 1 µM.
`Cc1nc(C(=O)Nc2ccc(F)c([C@]3(C)CCSC(N)=N3)c2)cs1` [Compound 505]: the IC50 was no more than 1 µM.
The same measure, in the same setting: in the case of `Cn1nc(Cl)cc1C(=O)Nc1cncc([C@]2(C)CCSC(N)=N2)c1` [Compound 478] it was no more than 1 µM; in that of `Cc1nc(C(=O)Nc2cncc([C@]3(C)CCSC(N)=N3)c2)c(C)o1` [Compound 461], no more than 1 µM.
The same measure, in the same setting: in the case of `C[C@@]1(c2cc(NC(=O)c3cn4ccccc4n3)ccc2F)CCSC(N)=N1` [Compound 502] it was no more than 1 µM.
On the same count and under the same terms, in the case of `Cc1nc(C)c(C(=O)Nc2cccc([C@]3(C)CCSC(N)=N3)c2)s1` [Compound 8] it was no more than 1 µM; in that of `Cc1cc(C(=O)Nc2ccc(F)c([C@]3(C)CCSC(N)=N3)c2)n(C(C)(C)C)n1` [Compound 538], no more than 1 µM; in that of `Cc1nc(Br)sc1C(=O)Nc1cccc([C@]2(C)CCSC(N)=N2)c1` [Compound 6], no more than 1 µM.
For `COc1cnc(C(=O)Nc2ccc(F)c([C@@]3(C)N=C(N)SCC3=O)c2)cn1` [Compound 689], the IC50 was no more than 1 µM.
The same measure, in the same setting: in the case of `CC1(c2cc(NC(=O)c3cnc(Cl)cn3)ccc2Br)CCSC(N)=N1` (stereo not shown) [Compound 517] it was no more than 1 µM.
For `C[C@@]1(c2ccnc(NC(=O)c3ccc(Cl)cn3)c2)CCSC(N)=N1` [Compound 598], the half-maximal inhibitory concentration (IC50) was no more than 1 µM.
Take `CC1(C)C[C@@](C)(c2cc(NC(=O)c3ccc(O)cn3)ccc2F)N=C(N)S1` [Compound 650]: the IC50 was no more than 1 µM.
On the same count and under the same terms, in the case of `CC1(C)C[C@@](C)(c2cc(NC(=O)c3ncccc3F)ccn2)N=C(N)S1` [Compound 655] it was no more than 1 µM.
Still for that read-out and setting: in the case of `COCCOc1cnc(C(=O)Nc2cc(F)c(F)c([C@]3(C)CCSC(N)=N3)c2)cn1` [Compound 148] it was no more than 1 µM; in that of `C[C@@]1(c2cncc(NC(=O)c3cnc(Cl)cn3)c2)CCSC(N)=N1` [Compound 597], no more than 1 µM; in that of `Cc1nc(C(=O)Nc2cccc([C@]3(C)CCSC(N)=N3)c2)cs1` [Compound 10], no more than 1 µM.
As for `Cc1nc(C(=O)Nc2ccc(F)c([C@@]3(C)N=C(N)SCC3(C)C)c2)co1` [Compound 648], the 50% inhibitory concentration (IC50) was no more than 1 µM.
Still for that read-out and setting: in the case of `CC(=O)c1ccc(C(=O)Nc2ccc(F)c([C@]3(C)CCSC(N)=N3)c2)s1` [Compound 530] it was no more than 1 µM; in that of `COc1nc(C(=O)Nc2ccc(F)c([C@]3(C)CCSC(N)=N3)c2)co1` [Compound 667], no more than 1 µM; in that of `C[C@@]1(c2cc(NC(=O)c3cnc(-c4ccsc4)cn3)ccc2F)CCSC(N)=N1` [Compound 537], no more than 1 µM.
The same measure, in the same setting: in the case of `C[C@@]1(c2cc(NC(=O)c3ccc(OCC(N)=O)cn3)ccc2F)CCSC(N)=N1` [Compound 559] it was no more than 1 µM; in that of `Cc1cnn(-c2cnc(C(=O)Nc3ccc(F)c([C@]4(C)CCSC(N)=N4)c3)cn2)c1` [Compound 577], no more than 1 µM.
On the same count and under the same terms, in the case of `C[C@@]1(c2cc(NC(=O)c3ccc(OCC#CCN)cn3)ccc2F)CCSC(N)=N1` [Compound 566] it was no more than 1 µM.
With `CC1(C)C[C@@](C)(c2cccc(NC(=O)c3ccc(C#N)cn3)c2)N=C(N)S1` [Compound 696], the concentration for half-maximal inhibition (IC50) is no more than 1 µM.
For the compound `Cc1cnc(C(=O)Nc2ccc(F)c([C@@]3(C)N=C(N)SCC3(F)F)c2)cn1` [Compound 662], the IC50 is no more than 1 µM.
`Cc1nc(C(=O)Nc2ccc(F)c([C@@]3(C)N=C(N)SCC3(F)F)c2)co1` [Compound 664]: the IC50 was no more than 1 µM.
Same read-out and setting: in the case of `CC1(C)C[C@@](C)(c2cc(NC(=O)c3coc(Cl)n3)ccc2F)N=C(N)S1` [Compound 645] it was no more than 1 µM; in that of `C[C@@]1(c2cc(NC(=O)c3cnc(N=NN)cn3)ccc2F)CCSC(N)=N1` [Compound 79], no more than 1 µM; in that of `C[C@@]1(c2cc(NC(=O)c3ncc(O)cc3F)ccc2F)CCSC(N)=N1` [Compound 491], no more than 1 µM.
The same measure, in the same setting: in the case of `C[C@]1(c2cc(NC(=O)c3ncccc3F)ccc2F)N=C(N)SCC1(F)F` [Compound 660] it was no more than 1 µM; in that of `Cc1cn2cc(C(=O)Nc3ccc(F)c([C@]4(C)CCSC(N)=N4)c3)ncc2n1` [Compound 652], no more than 1 µM; in that of `CCCCc1ccc(C(=O)Nc2ccc(F)c([C@@]3(C)N=C(N)SCC3(F)F)c2)nc1` [Compound 665], no more than 1 µM.
The same measure, in the same setting: in the case of `C[C@@]1(c2cc(NC(=O)c3coc(C(F)(F)F)n3)ccc2F)CCSC(N)=N1` [Compound 669] it was no more than 1 µM.
